In patent US20100099676A1 (SHIONOGI & CO., LTD., priority 2006, published 2010):

Assays:
Assay in all cases: Enzyme inhibiting activity of MMPs, fluorogenic peptide substrate
Format in all cases: biochemical
[1] = biological target: T1, MMP-13 (Homo sapiens, UniProt P45452); conditions: APMA-activated proenzyme; substrate MOCAc-Pro-Leu-Gly-Leu-A2Pr(DNP)-Ala-Arg-NH2, fluorescent intensity; read-out: IC50 MMP-13
T1 construct: purchased Calbiochem (EMD/MERCK Biosciences)
Outline: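 Pro-MMP-13 was activated with 1 mM APMA at 37° C for 2 h in 50 mM Tris-HCl pH 7.6, 0.3 M NaCl, 10 mM CaCl2, 0.005% Brij35. Activity was read by fluorescence using MOCAc-Pro-Leu-Gly-Leu-A2Pr(DNP)-Ala-Arg-NH2 substrate, with enzyme and inhibitor blank corrections. IC50 is the concentration giving 50% inhibition.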

[2] = biological target: T2, MMP-2 (Homo sapiens, UniProt P08253); conditions: substrate MOCAc-Pro-Leu-Gly-Leu-A2Pr(DNP)-Ala-Arg-NH2, fluorescent intensity
T2 construct: purchased Calbiochem (EMD/MERCK Biosciences)
T2 sequence (P08253 110-660): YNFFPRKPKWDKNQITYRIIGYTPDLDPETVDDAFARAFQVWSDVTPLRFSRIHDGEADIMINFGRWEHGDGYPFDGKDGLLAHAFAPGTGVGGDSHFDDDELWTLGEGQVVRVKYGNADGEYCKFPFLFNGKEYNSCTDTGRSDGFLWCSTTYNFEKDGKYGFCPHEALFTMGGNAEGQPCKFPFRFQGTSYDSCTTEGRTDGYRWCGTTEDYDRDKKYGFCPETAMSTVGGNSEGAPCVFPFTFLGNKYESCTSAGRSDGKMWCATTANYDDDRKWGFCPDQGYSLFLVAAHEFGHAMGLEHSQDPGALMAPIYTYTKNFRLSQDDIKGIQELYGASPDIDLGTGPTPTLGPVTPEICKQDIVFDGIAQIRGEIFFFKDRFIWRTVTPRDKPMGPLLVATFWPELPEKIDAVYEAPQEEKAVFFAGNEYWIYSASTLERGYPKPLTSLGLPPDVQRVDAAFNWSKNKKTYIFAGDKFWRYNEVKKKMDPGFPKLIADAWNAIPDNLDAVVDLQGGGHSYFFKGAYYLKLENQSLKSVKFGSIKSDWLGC
Outline: (§1)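 Recombinant human enzymes with the fluorogenic substrate MOCAc-Pro-Leu-Gly-Leu-A2Pr(DNP)-Ala-Arg-NH2. Fluorescence was read for enzyme+substrate±inhibitor and substrate±inhibitor blanks.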

[3] = biological target: T3, MMP-9 (Homo sapiens, UniProt P14780); conditions: substrate MOCAc-Pro-Leu-Gly-Leu-A2Pr(DNP)-Ala-Arg-NH2, fluorescent intensity
T3 construct: purchased Calbiochem (EMD/MERCK Biosciences)
T3 sequence (P14780 94-707): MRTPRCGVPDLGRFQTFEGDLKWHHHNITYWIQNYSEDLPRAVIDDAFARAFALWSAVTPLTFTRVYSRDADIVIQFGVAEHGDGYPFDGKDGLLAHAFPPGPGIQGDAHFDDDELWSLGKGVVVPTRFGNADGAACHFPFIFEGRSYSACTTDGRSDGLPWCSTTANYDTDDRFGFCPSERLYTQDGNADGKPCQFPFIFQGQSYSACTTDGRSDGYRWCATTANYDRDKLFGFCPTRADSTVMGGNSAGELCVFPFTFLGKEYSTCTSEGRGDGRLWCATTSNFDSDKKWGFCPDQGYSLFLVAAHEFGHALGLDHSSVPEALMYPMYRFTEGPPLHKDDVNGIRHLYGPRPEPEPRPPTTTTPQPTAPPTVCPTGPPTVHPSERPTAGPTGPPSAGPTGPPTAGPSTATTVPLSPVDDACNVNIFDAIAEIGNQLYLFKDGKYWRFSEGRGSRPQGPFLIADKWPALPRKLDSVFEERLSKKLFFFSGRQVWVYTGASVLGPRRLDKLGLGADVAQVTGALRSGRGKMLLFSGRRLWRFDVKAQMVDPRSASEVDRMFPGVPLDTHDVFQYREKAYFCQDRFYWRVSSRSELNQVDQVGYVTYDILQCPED
Outline: as §1

Row | IC50 [1] [nM] | IC50 [2] [µM] | IC50 [3] [µM] | Structure (SMILES)
1 | 17 | > 10 | > 10 | CC(C)[C@@H](NS(=O)(=O)N1CCN(c2ccc(C#Cc3ccnc(C(=O)NCc4ccc(F)c(Br)c4)c3)cc2)CC1)C(=O)O [III-210, (R)-2-(4-{4-[2-(3-bromo4-fluorobenzylcarbamoyl)-pyridin-4-ylethynyl]-phenyl}-piperazine-1-sulfonylamino)-3-methylbutanoic acid]
2 | 4 | 1 to 10 | > 10 | CC(C)[C@@H](NS(=O)(=O)N1CCN(c2ccc(C#Cc3ccnc(C(=O)NCc4ccc(N(C)C)cc4)c3)cc2)CC1)C(=O)O [III-212, (R)-2-(4-{4-[2-(4-dimethylaminobenzylcarbamoyl)-pyridin-4-ylethynyl]-phenyl}-piperazine-1-sulfonylamino)-3-methylbutanoic acid]
3 | 6 | 1 to 10 | > 10 | CC(C)[C@@H](NS(=O)(=O)N1CCN(c2ccc(C#Cc3ccnc(C(=O)NCc4ccc(-n5cccn5)cc4)c3)cc2)CC1)C(=O)O [III-214, (R)-3-methyl-2-(4-{4-[2-(4-pyrazol-1-ylbenzylcarbamoyl)-pyridin-4-ylethynyl]-phenyl}-piperazine-1-sulfonylamino)-butanoic acid]
4 | 17 | > 10 | > 10 | CC(C)[C@@H](NS(=O)(=O)N1CCN(c2ccc(C#Cc3ccnc(C(=O)NCc4ccc(Br)cc4)c3)cc2)CC1)C(=O)O [III-216, (R)-2-(4-{4-[2-(4-bromobenzylcarbamoyl)-pyridin-4-ylethynyl]-phenyl}-piperazine-1-sulfonylamino)-3-methylbutanoic acid]
5 | 19 | > 10 | > 10 | CC(C)[C@@H](NS(=O)(=O)N1CCN(c2ccc(C#Cc3ccnc(C(=O)NCc4ccc(-n5cccc5)cc4)c3)cc2)CC1)C(=O)O [III-218, (R)-3-methyl-2-(4-{4-[2-(4-pyrrol-1-ylbenzylcarbamoyl)-pyridin-4-ylethynyl]-phenyl}-piperazine-1-sulfonylamino)-butanoic acid]
6 | 23 | > 10 | > 10 | CC(C)[C@@H](NS(=O)(=O)N1CCN(c2ccc(C#Cc3ccnc(C(=O)NCc4ccc(SC(F)(F)F)cc4)c3)cc2)CC1)C(=O)O [III-222, (R)-3-methyl-2-(4-{4-[2-(4-trifluoromethylsulfanylbenzylcarbamoyl)-pyridin-4-ylethynyl]-phenyl}-piperazine-1-sulfonylamino)-butanoic acid]
7 | 23 | > 10 | > 10 | CC(C)[C@@H](NS(=O)(=O)N1CCN(c2ccc(C#Cc3ccnc(C(=O)NCc4cccc(I)c4)c3)cc2)CC1)C(=O)O [III-226, (R)-2-(4-{4-[2-(3-iodobenzylcarbamoyl)-pyridin-4-ylethynyl]-phenyl}-piperazine-1-sulfonylamino)-3-methylbutanoic acid]

Row | Structure (SMILES) | IC50 [1] [nM] | IC50 [2] [µM] | IC50 [3] [µM]
8 | CC(C)[C@@H](NS(=O)(=O)N1CCN(c2ccc(C#Cc3ccnc(C(=O)NCc4ccc(CNC(=O)OC(C)(C)C)cc4)c3)cc2)CC1)C(=O)O [III-223, (R)-2-[4-(4-{2-[4-(tert-butoxycarbonylaminomethyl)-benzylcarbamoyl]-pyridin-4-ylethynyl}-phenyl)-piperazine-1-sulfonylamino]-3-methylbutanoic acid] | 17 | 1 to 10 | > 10
9 | CC(C)[C@@H](NS(=O)(=O)N1CCN(c2ccc(C#Cc3ccnc(C(=O)NCc4cccc(CNC(=O)OC(C)(C)C)c4)c3)cc2)CC1)C(=O)O [III-224, (R)-2-[4-(4-{2-[3-(tert-butoxycarbonylaminomethyl)-benzylcarbamoyl]-pyridin-4-ylethynyl}-phenyl)-piperazine-1-sulfonylamino]-3-methylbutanoic acid] | 16 | 1 to 10 | > 10
